Measurements taken from ChEMBL document CHEMBL4177686, “Depsidone and xanthones from Garcinia xanthochymus with hypoglycemic activity and the mechanism of promoting glucose uptake in L6 myotubes” (Bioorg Med Chem, 2017).
The source made the active and inactive calls. The rule behind the calls is not given here.

Assays:
[1] = tested on: L6; assay: Cytotoxicity against rat L6 cells assessed as reduction in cell viability at 25 uM after 4 hrs by MTT assay; assay type: cell-based; conditions: l6, 4 h
[2] = tested on: L6; assay: Increase in glucose uptake in rat L6 cells at 25 uM after 4 hrs relative to control; assay type: functional
[3] = tested on: L6; assay: Increase in glucose uptake in rat L6 cells at 2 mM after 4 hrs relative to control; assay type: functional
[4] = tested on: L6; assay: Increase in glucose uptake in rat L6 cells at 2 mM treated for 4 hrs post 30 mins AMPK inhibitor compound C treatment; assay type: functional, cell-based
[5] = target: RAC-alpha serine/threonine-protein kinase (Rattus norvegicus) (UniProt P47196); assay: Activation of AKT in rat L6 cells assessed as GSK3beta phosphorylation at Ser 9 residues at 12.5 to 25 uM by Western blot analysis; assay type: cell-based
[6] = tested on: L6; assay: Cytotoxicity against rat L6 cells assessed as reduction in cell viability at 1 to 100 uM after 4 hrs by MTT assay; assay type: cell-based; conditions: l6, 4 h
[7] = tested on: L6; assay: Activation of PI3K/AKT/AMPK in rat L6 cells transfected with mOrange dye-based IRAP assessed as increase in GLUT4 translocation at 25 uM measured every 5 mins for 30 mins by confocal microscopic analysis relative to basal control; assay type: cell-based
[8] = tested on: L6; assay: Activation of PI3K/AKT/AMPK in rat L6 cells transfected with mOrange dye-based IRAP assessed as increase in GLUT4 translocation at 25 uM measured every 5 mins for 30 mins post 30 mins AMPK inhibitor compound C treatment by confocal microscopic analysis; assay type: cell-based
[9] = tested on: L6; assay: Increase in glucose uptake in rat L6 cells at 25 uM treated for 4 hrs post 15 mins PI3K inhibitor wortmanin treatment; assay type: functional, cell-based
[10] = tested on: L6; assay: Activation of AMPK phosphorylation in rat L6 cells assessed as ACC phosphorylation at Ser 79 residues at 12.5 to 25 uM by Western blot analysis; assay type: cell-based
[11] = target: RAC-alpha serine/threonine-protein kinase (Rattus norvegicus) (UniProt P47196); assay: Induction of AKT phosphorylation at Ser 473 residues in rat L6 cells at 12.5 to 25 uM by Western blot analysis; assay type: cell-based
[12] = tested on: L6; assay: Activation of PI3K/AKT/AMPK in rat L6 cells transfected with mOrange dye-based IRAP assessed as increase in GLUT4 translocation at 25 uM measured every 5 mins for 30 mins post 15 mins PI3K inhibitor wortmanin treatment by confocal microscopic analysis; assay type: cell-based
[13] = tested on: L6; assay: Increase in glucose uptake in rat L6 cells at 25 to 100 uM after 4 hrs; assay type: functional, cell-based
[14] = tested on: L6; assay: Increase in glucose uptake in rat L6 cells at 25 uM treated for 4 hrs post 30 mins AMPK inhibitor compound C treatment; assay type: functional, cell-based
[15] = tested on: L6; assay: Increase in glucose uptake in rat L6 cells at 25 uM after 2 to 4 hrs; assay type: functional, cell-based
[16] = tested on: L6; assay: Increase in glucose uptake in rat L6 cells at 100 uM after 4 hrs; assay type: functional, cell-based
[17] = tested on: L6; assay: Increase in glucose uptake in rat L6 cells at <10 uM after 4 hrs; assay type: functional, cell-based
[18] = tested on: L6; assay: Induction of AMPK phosphorylation at […] residues in rat L6 cells at 12.5 to 25 uM by Western blot analysis; assay type: cell-based
[19] = tested on: L6; assay: Increase in glucose uptake in rat L6 cells at 10 to 25 uM after 4 hrs; assay type: functional, cell-based
[20] = tested on: L6; assay: Induction of AMPK phosphorylation at […] residues in rat L6 cells at 25 uM by Western blot analysis; assay type: cell-based
[21] = tested on: L6; assay: Activation of AMPK in rat L6 cells assessed as ACC phosphorylation at Ser 79 residues at 25 uM by Western blot analysis; assay type: cell-based
[22] = target: RAC-alpha serine/threonine-protein kinase (Rattus norvegicus) (UniProt P47196); assay: Induction of AKT phosphorylation at Ser 473 residues in rat L6 cells by Western blot analysis; assay type: cell-based

Sequence of RAC-alpha serine/threonine-protein kinase (Rattus norvegicus) (P47196 whole entry): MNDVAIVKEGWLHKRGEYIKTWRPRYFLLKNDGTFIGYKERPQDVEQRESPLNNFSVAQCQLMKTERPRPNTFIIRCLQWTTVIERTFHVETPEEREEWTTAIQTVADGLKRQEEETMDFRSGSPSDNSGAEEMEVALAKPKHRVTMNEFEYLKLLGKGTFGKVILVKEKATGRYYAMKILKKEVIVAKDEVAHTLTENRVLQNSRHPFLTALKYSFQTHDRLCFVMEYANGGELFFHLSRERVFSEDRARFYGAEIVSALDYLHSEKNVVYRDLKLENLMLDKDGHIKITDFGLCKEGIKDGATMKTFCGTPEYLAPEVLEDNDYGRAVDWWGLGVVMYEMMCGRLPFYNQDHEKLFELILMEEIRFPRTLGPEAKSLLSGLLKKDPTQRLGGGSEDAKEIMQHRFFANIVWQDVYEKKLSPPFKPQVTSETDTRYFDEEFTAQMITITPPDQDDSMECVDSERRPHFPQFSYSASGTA

For COc1c(O)c(CC=C(C)C)cc2c(=O)c3c(O)ccc(O)c3oc12, which Activity [1] is on record?
The Activity was “Non-Toxic”.

Which Activity [1] does the source give for CC(C)=CCc1c(O)c(O)c2oc3c(CC=C(C)C)c(O)cc(O)c3c(=O)c2c1CCC(C)(C)O here?
The Activity was “Non-Toxic”.

CC(C)=CCC/C(C)=C/Cc1c(O)c(O)c2oc3cc(O)cc(O)c3c(=O)c2c1CCC(C)(C)O was tested. Which Activity [1] did it give?
The Activity was “Non-Toxic”.

Which Activity [1] does the source give for COc1c2c(c(O)c3c(=O)c4c(O)ccc(O)c4oc13)C=CC(C)(C)O2 here?
The Activity was “Non-Toxic”.

Which Activity [2] does the source give for CC(C)=CCc1cc(O)c(O)c2oc3cc(O)cc(O)c3c(=O)c12 here?
Its Activity is “inactive”.

And the Activity [1]?
Its Activity is “Non-Toxic”.

For CC(C)=CCc1c(O)c(O)c2oc3c4c(cc(O)c3c(=O)c2c1CC=C(C)C)OC(C)(C)C=C4, which Activity [2] is on record?
The Activity was 195.28%.

And the Activity [1]?
The Activity was “Non-Toxic”.

For O=c1c2cccc(O)c2oc2ccc(O)c(O)c12, which Activity [1] is on record?
Its Activity is “Non-Toxic”.

With CC1(C)C=Cc2c(cc3oc4c(O)cccc4c(=O)c3c2O)O1 as the compound, how does the Activity [1] read?
Its Activity is “Non-Toxic”.

CC(C)=CCC/C(C)=C/Cc1c(O)cc2c(c1O)C(=O)Oc1c(CC=C(C)C)cc(O)c(O)c1O2 was tested. Which Activity [1] did it give?
The Activity was “Non-Toxic”.

For COc1c(O)ccc2c(=O)c3c(O)ccc(OC)c3oc12, which Activity [1] is on record?
The Activity was “Non-Toxic”.

How did the Activity [1] turn out when CC1(C)C=Cc2c(c(O)c3oc4ccc(O)cc4c(=O)c3c2O)O1 was run?
Its Activity is “Non-Toxic”.

With CC(C)=CCC/C(C)=C/Cc1cc2c(=O)c3c(O)cc(O)cc3oc2c(O)c1O as the compound, how does the Activity [2] read?
The Activity was “inactive”.

And the Activity [1]?
The Activity was “Non-Toxic”.

With CC(C)=CCc1c(O)cc(O)c2c(=O)c3cccc(O)c3oc12 as the compound, how does the Activity [1] read?
Its Activity is “Non-Toxic”.

How did the Activity [1] turn out when COc1c(O)ccc2oc3c(O)cccc3c(=O)c12 was run?
The Activity was “Non-Toxic”.

With CC1(C)C=Cc2c(c(O)c3oc4c(O)ccc(O)c4c(=O)c3c2O)O1 as the compound, how does the Activity [2] read?
Its Activity is “inactive”.

And the Activity [1]?
The Activity was “Non-Toxic”.

For CN(C)C(=N)NC(=N)N [METFORMIN], which Activity [3] is on record?
The Activity was 167.2%.

And the Activity [4]?
The Activity was “Active”.

Which Activity [1] does the source give for CC(C)=CCc1c(O)c(O)c2oc3c(O)ccc(O)c3c(=O)c2c1CC=C(C)C here?
Its Activity is “Non-Toxic”.

Which Activity [1] does the source give for CC(C)=CCc1c(O)c(O)c2oc3c(CC=C(C)C)c(O)cc(O)c3c(=O)c2c1CC=C(C)C here?
The Activity was “Non-Toxic”.

COc1cc(O)c2c(=O)c3cccc(O)c3oc2c1 was tested. Which Activity [1] did it give?
The Activity was “Non-Toxic”.

How did the Activity [5] turn out when C=CC(C)(C)c1cc(O)c(O)c2c(=O)c3cc(CC=C(C)C)c(O)c(O)c3oc12 was run?
Its Activity is “Active”.

And the Activity [6]?
Its Activity is “Non-Toxic”.

And the Activity [7]?
Its Activity is “Active”.

What about the Activity [8] of the same compound?
The Activity was “inactive”.

And the Activity [9]?
Its Activity is “Active”.

What about the Activity [10] of the same compound?
The Activity was “Active”.

And the Activity [11]?
The Activity was “Active”.

And the Activity [12]?
Its Activity is “inactive”.

What about the Activity [13] of the same compound?
Its Activity is “inactive”.

What about the Activity [2] of the same compound?
Its Activity is 166.2%.

What about the Activity [14] of the same compound?
Its Activity is “Active”.

And the Activity [1]?
Its Activity is “Non-Toxic”.

What about the Activity [15] of the same compound?
The Activity was “Active”.

What about the Activity [16] of the same compound?
The Activity was “inactive”.

What about the Activity [17] of the same compound?
The Activity was “inactive”.

And the Activity [18]?
The Activity was “Active”.

What about the Activity [19] of the same compound?
Its Activity is “Active”.

C=CC(C)(C)c1cc(O)c2oc3c(O)cccc3c(=O)c2c1O was tested. Which Activity [5] did it give?
Its Activity is “Active”.

And the Activity [6]?
Its Activity is “Non-Toxic”.

What about the Activity [7] of the same compound?
The Activity was “Active”.

What about the Activity [8] of the same compound?
Its Activity is “inactive”.

What about the Activity [20] of the same compound?
Its Activity is “Active”.

What about the Activity [9] of the same compound?
The Activity was “inactive”.

What about the Activity [21] of the same compound?
Its Activity is “Active”.

And the Activity [11]?
The Activity was “Active”.

And the Activity [12]?
Its Activity is “inactive”.

And the Activity [13]?
Its Activity is “inactive”.

What about the Activity [2] of the same compound?
The Activity was 208.4%.

And the Activity [22]?
Its Activity is “Dose-dependent effect”.

What about the Activity [14] of the same compound?
The Activity was “Active”.

What about the Activity [1] of the same compound?
The Activity was “Non-Toxic”.

What about the Activity [15] of the same compound?
Its Activity is “Active”.

What about the Activity [17] of the same compound?
Its Activity is “inactive”.

What about the Activity [19] of the same compound?
Its Activity is “Active”.
